According to patent US10208034B2, “Quinoline derivative” (ONO PHARMACEUTICAL CO., LTD., priority 2014, dated 2019):

What was measured:
Ba/F3 Axl = biological target: T1, Ba/F3 Axl (Homo sapiens, UniProt P30530); assay: Proliferation suppression rate using mouse pro-B cell line (Ba/F3 Axl) stably expressing Axl (CellTiter-Glo); format: cell-based; conditions: Ba/F3 Axl cells, 48 hours, read-out: IC50 value of proliferation suppression, Ba/F3 Axl
T1 sequence (P30530 1-894): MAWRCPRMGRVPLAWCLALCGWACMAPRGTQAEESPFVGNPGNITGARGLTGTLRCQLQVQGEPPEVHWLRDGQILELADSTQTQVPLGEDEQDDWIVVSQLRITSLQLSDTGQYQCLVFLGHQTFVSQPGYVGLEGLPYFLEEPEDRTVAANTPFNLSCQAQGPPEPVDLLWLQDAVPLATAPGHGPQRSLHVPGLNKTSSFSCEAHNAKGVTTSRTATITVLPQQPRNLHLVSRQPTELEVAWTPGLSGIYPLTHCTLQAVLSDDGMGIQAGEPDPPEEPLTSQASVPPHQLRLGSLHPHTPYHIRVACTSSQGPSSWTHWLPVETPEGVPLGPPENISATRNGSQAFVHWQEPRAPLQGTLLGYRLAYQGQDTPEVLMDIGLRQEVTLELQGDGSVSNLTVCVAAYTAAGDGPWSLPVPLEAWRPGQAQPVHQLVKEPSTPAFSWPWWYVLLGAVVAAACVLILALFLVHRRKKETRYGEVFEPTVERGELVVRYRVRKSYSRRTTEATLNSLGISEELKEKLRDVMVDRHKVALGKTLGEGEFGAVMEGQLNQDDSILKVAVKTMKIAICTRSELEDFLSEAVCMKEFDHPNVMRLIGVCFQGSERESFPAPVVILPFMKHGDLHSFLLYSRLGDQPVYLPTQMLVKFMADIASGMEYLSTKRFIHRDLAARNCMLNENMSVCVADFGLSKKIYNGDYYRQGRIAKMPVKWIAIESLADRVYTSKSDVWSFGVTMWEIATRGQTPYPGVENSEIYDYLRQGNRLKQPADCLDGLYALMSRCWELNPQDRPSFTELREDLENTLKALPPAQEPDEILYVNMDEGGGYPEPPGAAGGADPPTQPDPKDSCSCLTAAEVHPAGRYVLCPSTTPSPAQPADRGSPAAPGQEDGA
Experimental: A 0.1 mmol/L DMSO solution of the test compound was dispensed into a 96-well plate, and a 3-fold dilution series was prepared using DMSO. DMSO solutions of test compounds, having various concentrations, were further 500-fold diluted with a RPMI1640 medium (containing 10% HI-FBS, 1% penicillin) and a diluted solution of the test compound having […] with respect to the final concentration was prepared. In each well of the 96-well plate (BD Biosciences) for measurement, 50 μL of a RPMI medium was added to the Blank group, 50 μL of a RPMI medium containing 0.2% DMSO was added to the medium group, and 50 μL of the diluted solution of the test compound was added to the test compound group, respectively. Ba/F3 Axl was diluted with a medium to have a density of 2×10^5 cells/mL to prepare a cell suspension. In each well of the 96-well plate for measurement, 50 μL each of the RPMI medium was added to the Blank group, and 50 μL each of the cell suspension to the medium group and the test compound group, respectively, and the groups were stood still at 37° C. at 5% CO2 for 48 hours. After standing still, Relative Light Unit (RLU) was measured by using CELLTITER-GLO (registered trademark) LUMINESCENT CELL VIABILITY ASSAY (Promega). The measurement was carried out according to the attached instruction. To each well, 100 μL each of light-emitting solution was added. The plate was stirred at room temperature for 3 min and then stool still at room temperature with light shielded for 10 min, and RLU was measured by using Microplate Reader (SpectraMax M5e, Molecular Devices). The average values of RLU of the Blank group and the medium group were respectively calculated, and the proliferation suppression rate of the test compound group was calculated. Proliferation suppression rate (%)={1−(RLU of test compound group−A)/(B−A)}×100 [Math. 2] A: average value of RLU of Blank group B: average value of RLU of medium group
A value of 50% inhibition rate (IC50 value) of the test compound was calculated from the inhibition curve based on the inhibition rate in each concentration of the test compound.

KDR kinase = KDR kinase (Homo sapiens, UniProt P35968); assay: Evaluation of kinase selectivity (KDR kinase IC50 versus Axl IC50, in vitro test); format: biochemical; conditions: Axl selective inhibitory activity with respect to KDR kinase, ratio of IC50 values
Chain of KDR kinase (P35968 20-1356): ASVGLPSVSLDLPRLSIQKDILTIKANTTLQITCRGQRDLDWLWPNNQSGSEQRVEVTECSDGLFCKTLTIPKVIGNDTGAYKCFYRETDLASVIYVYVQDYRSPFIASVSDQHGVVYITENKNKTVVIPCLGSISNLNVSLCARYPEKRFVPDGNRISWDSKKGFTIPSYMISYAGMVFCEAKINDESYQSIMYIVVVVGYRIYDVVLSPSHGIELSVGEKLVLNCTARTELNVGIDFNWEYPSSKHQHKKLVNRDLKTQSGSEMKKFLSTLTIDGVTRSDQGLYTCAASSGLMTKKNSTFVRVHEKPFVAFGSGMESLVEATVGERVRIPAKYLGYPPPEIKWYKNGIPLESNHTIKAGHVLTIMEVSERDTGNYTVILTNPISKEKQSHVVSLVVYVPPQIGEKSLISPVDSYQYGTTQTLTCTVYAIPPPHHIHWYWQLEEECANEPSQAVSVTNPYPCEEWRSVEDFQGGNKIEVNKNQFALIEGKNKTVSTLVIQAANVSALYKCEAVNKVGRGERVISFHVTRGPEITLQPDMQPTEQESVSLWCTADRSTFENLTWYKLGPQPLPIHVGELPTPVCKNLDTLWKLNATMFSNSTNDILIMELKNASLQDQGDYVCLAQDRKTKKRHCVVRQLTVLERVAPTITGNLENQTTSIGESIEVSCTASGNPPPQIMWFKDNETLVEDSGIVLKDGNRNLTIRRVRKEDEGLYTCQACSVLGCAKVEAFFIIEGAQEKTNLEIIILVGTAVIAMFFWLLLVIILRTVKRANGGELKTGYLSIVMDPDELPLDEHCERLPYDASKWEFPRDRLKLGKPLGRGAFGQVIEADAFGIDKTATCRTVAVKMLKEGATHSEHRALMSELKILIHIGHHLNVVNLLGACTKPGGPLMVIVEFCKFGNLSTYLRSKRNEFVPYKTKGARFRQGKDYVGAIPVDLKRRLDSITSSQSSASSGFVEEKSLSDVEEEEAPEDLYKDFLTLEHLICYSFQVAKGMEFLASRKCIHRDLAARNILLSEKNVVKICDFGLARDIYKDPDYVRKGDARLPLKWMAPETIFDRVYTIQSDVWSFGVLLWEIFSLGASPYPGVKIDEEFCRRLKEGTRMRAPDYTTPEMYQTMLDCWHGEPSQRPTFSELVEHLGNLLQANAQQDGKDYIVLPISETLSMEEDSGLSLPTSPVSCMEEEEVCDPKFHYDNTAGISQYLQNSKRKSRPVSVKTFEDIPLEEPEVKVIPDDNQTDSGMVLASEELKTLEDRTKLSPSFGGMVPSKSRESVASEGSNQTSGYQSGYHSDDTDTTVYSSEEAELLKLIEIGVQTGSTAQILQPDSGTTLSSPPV
Experimental: Similar to Biological Example 1, values of 50% inhibition rate (IC50 value) with respect to the KDR kinase of the test compound was measured. The Axl selective inhibitory activity of the test compound with respect to KDR kinase was calculated based on the above-mentioned ratio of the IC50 values. As the test compounds, for the compounds of the present invention, the compounds of Examples 21, 42, 66, and 28 were used, and for the comparative compounds, the compound of Example 74 (Comparative compound B) and the compound of Example 92 (Comparative compound C) described in Patent Literature 5, having the following structure, were used.

For `COc1cc2nccc(Oc3ccc(NC(=O)c4cc(C(C)=O)cn(-c5ccccc5)c4=O)nc3)c2cc1OC` [Example 21, 5-acetyl-N-{5-[(6,7-dimethoxy-4-quinolinyl)oxy]-2-pyridinyl}-2-oxo-1-phenyl-1,2-dihydro-3-pyridinecarboxamide], the GI50 (Ba/F3 Axl) was 0.96 nM and the “KDR [IC50]/Ax1 [IC50]” value (KDR kinase) was “about 149 times”.

For `COc1cc2nccc(Oc3ccc(NC(=O)c4cc5ccncc5n(-c5ccccc5)c4=O)nc3)c2cc1OC` [Example 28, N-{5-[(6,7-dimethoxy-4-quinolinyl)oxy]-2-pyridinyl}-2-oxo-1-phenyl-1,2-dihydro-1,7-naphthyridine-3-carboxamide], the GI50 (Ba/F3 Axl) was 0.99 nM and the “KDR [IC50]/Ax1 [IC50]” value (KDR kinase) was “about 294 times”.

In the case of `COc1cc2nccc(Oc3ccc(NC(=O)c4c5c(cn(-c6ccccc6)c4=O)C(=O)CCC5)nc3)c2cc1OC` [Example 42, N-{5-[(6,7-dimethoxy-4-quinolinyl)oxy]-2-pyridinyl}-3,8-dioxo-2-phenyl-2,3,5,6,7,8-hexahydro-4-isoquinolinecarboxamide], the GI50 (Ba/F3 Axl) is reported as 4.2 nM and the “KDR [IC50]/Ax1 [IC50]” value (KDR kinase) is reported as “about 2857 times”.

With `COc1cc2nccc(Oc3ccc(NC(=O)c4cc5c(n(-c6ccccc6)c4=O)CCCNC5=O)nc3)c2cc1OC` [Example 66, N-{5-[(6,7-dimethoxy-4-quinolinyl)oxy]-2-pyridinyl}-2,5-dioxo-1-phenyl-2,5,6,7,8,9-hexahydro-1H-pyrido[3,2-c]azepine-3-carboxamide] the GI50 (Ba/F3 Axl) was 5.7 nM and the “KDR [IC50]/Ax1 [IC50]” value (KDR kinase) was “about 1401 times”.
